Legend:
[1] = target: T1, CysE (GST-CysE) (Escherichia coli, UniProt P0A9D4); assay: SAT activity, decrease of OD232 (acetyl-CoA consumption); assay type: biochemical; conditions: read-out: % residual activity at 1 μM
T1 construct: template plasmid pCysE
T1 sequence (P0A9D4 2-273): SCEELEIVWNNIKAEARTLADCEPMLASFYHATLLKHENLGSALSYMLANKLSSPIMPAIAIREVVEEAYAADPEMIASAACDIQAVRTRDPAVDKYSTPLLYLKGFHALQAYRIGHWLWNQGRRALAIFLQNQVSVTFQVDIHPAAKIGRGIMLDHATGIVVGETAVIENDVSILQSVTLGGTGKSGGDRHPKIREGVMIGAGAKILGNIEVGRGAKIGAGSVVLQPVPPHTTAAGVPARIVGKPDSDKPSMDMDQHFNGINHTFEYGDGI

[2] = target: T2, OpSat1p (GST-OpSat1p) (Ogataea parapolymorpha, UniProt W1Q867); assay: as above; assay type: biochemical; conditions: read-out: concentration of cysteine at 50% inhibition
T2 construct: gene HPODL_02797; alpha/beta hydrolase 1 domain
T2 sequence (W1Q867 2-499): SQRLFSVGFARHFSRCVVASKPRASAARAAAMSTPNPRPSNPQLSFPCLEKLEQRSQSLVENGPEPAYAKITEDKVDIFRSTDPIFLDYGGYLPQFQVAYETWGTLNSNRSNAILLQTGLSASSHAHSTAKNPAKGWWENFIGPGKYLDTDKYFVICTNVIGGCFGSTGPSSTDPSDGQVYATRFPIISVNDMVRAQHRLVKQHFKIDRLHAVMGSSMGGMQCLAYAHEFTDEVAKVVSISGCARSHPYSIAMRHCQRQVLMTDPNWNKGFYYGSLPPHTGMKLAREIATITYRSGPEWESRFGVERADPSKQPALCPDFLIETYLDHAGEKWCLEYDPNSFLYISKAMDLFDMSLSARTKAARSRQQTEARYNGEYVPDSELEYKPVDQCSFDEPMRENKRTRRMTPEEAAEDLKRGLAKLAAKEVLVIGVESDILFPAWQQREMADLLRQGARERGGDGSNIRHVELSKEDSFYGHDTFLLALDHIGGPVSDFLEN

N[C@@H](CS)C(=O)O [L-cysteine]
remaining activity at 1 µM [1]: ~40%
IC50 [2]: ~250 µM

Source: PMC5799214, “A Novel Mitochondrial Serine O-Acetyltransferase, OpSAT1, Plays a Critical Role in Sulfur Metabolism in the Thermotolerant Methylotrophic Yeast Ogataea parapolymorpha” (Scientific Reports, 2018)
